Source: ChEMBL document CHEMBL1177848, “Synthesis of novel 6,6a,7,8-tetrahydro-5H-naphtho[1,2-e]pyrimido[4,5-b][1,4]diazepines under microwave irradiation as potential anti-tumor agents” (2010)
Calls of active or inactive are those of the source. The calls are words filed in the database; no cut-off is given here.

Tests used:
RPMI-8226 [1] = assay: Growth inhibition of human RPMI8226 cells after 48 hrs by sulforhodamine B assay; assay type: functional; conditions: RPMI-8226, 48 h
SR [2] = assay: Growth inhibition of human SR cells after 48 hrs by sulforhodamine B assay; assay type: functional
HOP-92 = assay: Growth inhibition of human HOP92 cells after 48 hrs by sulforhodamine B assay; assay type: functional; conditions: HOP-92, 48 h
NCI-H23 [3] = assay: Growth inhibition of human NCI-H23 cells after 48 hrs by sulforhodamine B assay; assay type: functional; conditions: NCI-H23, 48 h
NCI-H460 = assay: Growth inhibition of human NCI-H460 cells after 48 hrs by sulforhodamine B assay; assay type: functional; conditions: NCI-H460, 48 h
U-251 [4] = assay: Growth inhibition of human U251 cells after 48 hrs by sulforhodamine B assay; assay type: functional; conditions: U-251, 48 h
LOX IMVI = assay: Growth inhibition of human LOXIMVI cells after 48 hrs by sulforhodamine B assay; assay type: functional
SK-MEL-5 [5] = assay: Growth inhibition of human SK-MEL-5 cells after 48 hrs by sulforhodamine B assay; assay type: functional; conditions: SK-MEL-5, 48 h
UACC-257 [6] = assay: Growth inhibition of human UACC257 cells after 48 hrs by sulforhodamine B assay; assay type: functional; conditions: UACC-257, 48 h
UACC-62 [7] = assay: Growth inhibition of human UACC62 cells after 48 hrs by sulforhodamine B assay; assay type: functional; conditions: UACC-62, 48 h
NCI/ADR-RES = assay: Growth inhibition of human NCI/ADR-RES cells after 48 hrs by sulforhodamine B assay; assay type: functional
A498 [8] = assay: Growth inhibition of human A498 cells after 48 hrs by sulforhodamine B assay; assay type: functional; conditions: A498, 48 h
ACHN [9] = assay: Growth inhibition of human ACHN cells after 48 hrs by sulforhodamine B assay; assay type: functional
CAKI-1 [10] = assay: Growth inhibition of human Caki1 cells after 48 hrs by sulforhodamine B assay; assay type: functional; conditions: CAKI-1, 48 h
SN12C [11] = assay: Growth inhibition of human SN12C cells after 48 hrs by sulforhodamine B assay; assay type: functional
TK-10 = assay: Growth inhibition of human TK10 cells after 48 hrs by sulforhodamine B assay; assay type: functional; conditions: TK-10, 48 h
MCF7 [12] = assay: Growth inhibition of human MCF7 cells after 48 hrs by sulforhodamine B assay; assay type: functional; conditions: MCF7, 48 h
MDA-MB-231 = assay: Growth inhibition of human MDA-MB-231 cells after 48 hrs by sulforhodamine B assay; assay type: functional; conditions: MDA-MB-231, 48 h
MDA-MB-468 = assay: Growth inhibition of human MDA-MB-468 cells after 48 hrs by sulforhodamine B assay; assay type: functional; conditions: MDA-MB-468, 48 h
RPMI-8226 [13] = assay: Growth inhibition of human RPMI8226 cells at 1 uM after 48 hrs by sulforhodamine B assay; assay type: functional, cell-based
SR [14] = assay: Growth inhibition of human SR cells at 1 uM after 48 hrs by sulforhodamine B assay; assay type: functional, cell-based
NCI-H226 = assay: Growth inhibition of human NCI-H226 cells at 1 uM after 48 hrs by sulforhodamine B assay; assay type: functional, cell-based
NCI-H23 [15] = assay: Growth inhibition of human NCI-H23 cells at 1 uM after 48 hrs by sulforhodamine B assay; assay type: functional, cell-based
HOP-62 = assay: Growth inhibition of human HOP62 cells at 1 uM after 48 hrs by sulforhodamine B assay; assay type: functional, cell-based
A549 = assay: Growth inhibition of human A549 cells at 1 uM after 48 hrs by sulforhodamine B assay; assay type: functional, cell-based
COLO 205 = assay: Growth inhibition of human COLO205 cells at 1 uM after 48 hrs by sulforhodamine B assay; assay type: functional, cell-based
HCT-116 = assay: Growth inhibition of human HCT116 cells at 1 uM after 48 hrs by sulforhodamine B assay; assay type: functional, cell-based
HT-29 = assay: Growth inhibition of human HT-29 cells at 1 uM after 48 hrs by sulforhodamine B assay; assay type: functional, cell-based
SW-620 = assay: Growth inhibition of human SW620 cells at 1 uM after 48 hrs by sulforhodamine B assay; assay type: functional, cell-based
HCC 2998 = assay: Growth inhibition of human HCC2998 cells at 1 uM after 48 hrs by sulforhodamine B assay; assay type: functional, cell-based
SF-539 = assay: Growth inhibition of human SF539 cells at 1 uM after 48 hrs by sulforhodamine B assay; assay type: functional, cell-based
U-251 [16] = assay: Growth inhibition of human U251 cells at 1 uM after 48 hrs by sulforhodamine B assay; assay type: functional, cell-based
SF-268 = assay: Growth inhibition of human SF268 cells at 1 uM after 48 hrs by sulforhodamine B assay; assay type: functional, cell-based
SNB-75 = assay: Growth inhibition of human SNB75 cells at 1 uM after 48 hrs by sulforhodamine B assay; assay type: functional, cell-based
SK-MEL-5 [17] = assay: Growth inhibition of human SK-MEL-5 cells at 1 uM after 48 hrs by sulforhodamine B assay; assay type: functional, cell-based
UACC-257 [18] = assay: Growth inhibition of human UACC257 cells at 1 uM after 48 hrs by sulforhodamine B assay; assay type: functional, cell-based
UACC-62 [19] = assay: Growth inhibition of human UACC62 cells at 1 uM after 48 hrs by sulforhodamine B assay; assay type: functional, cell-based
SK-MEL-2 = assay: Growth inhibition of human SK-MEL-2 cells at 1 uM after 48 hrs by sulforhodamine B assay; assay type: functional, cell-based
IGROV-1 = assay: Growth inhibition of human IGROV1 cells at 1 uM after 48 hrs by sulforhodamine B assay; assay type: functional, cell-based
OVCAR-8 = assay: Growth inhibition of human OVCAR8 cells at 1 uM after 48 hrs by sulforhodamine B assay; assay type: functional, cell-based
A498 [20] = assay: Growth inhibition of human A498 cells at 1 uM after 48 hrs by sulforhodamine B assay; assay type: functional, cell-based
ACHN [21] = assay: Growth inhibition of human ACHN cells at 1 uM after 48 hrs by sulforhodamine B assay; assay type: functional, cell-based
CAKI-1 [22] = assay: Growth inhibition of human Caki1 cells at 1 uM after 48 hrs by sulforhodamine B assay; assay type: functional, cell-based
SN12C [23] = assay: Growth inhibition of human SN12C cells at 1 uM after 48 hrs by sulforhodamine B assay; assay type: functional, cell-based
786-0 = assay: Growth inhibition of human 786-0 cells at 1 uM after 48 hrs by sulforhodamine B assay; assay type: functional, cell-based
PC-3 = assay: Growth inhibition of human PC3 cells at 1 uM after 48 hrs by sulforhodamine B assay; assay type: functional, cell-based
MCF7 [24] = assay: Growth inhibition of human MCF7 cells at 1 uM after 48 hrs by sulforhodamine B assay; assay type: functional, cell-based
[25] = read-out: LC50 (the source's name)

Which results are given for `Nc1nc(N)c2c(n1)NC(c1ccc(F)cc1)C1CCc3ccccc3C1=N2` (stereo unspecified)?
GI50 (RPMI-8226 [1]): 1.81 µM; LC50 (RPMI-8226 [1]): 62.8 µM; GI50 (SR [2]): 1.65 µM; LC50 (SR [2]): 12.5 µM; GI50 (HOP-92): 1.17 µM; LC50 (50% lethal concentration) (HOP-92): 31.5 µM; GI50 (NCI-H23 [3]): 4.06 µM; LC50 (NCI-H23 [3]): 46.4 µM; GI50 (NCI-H460): 3.76 µM; LC50 (NCI-H460): 43.3 µM; GI50 (U-251 [4]): 4.29 µM; LC50 (U-251 [4]): 44.1 µM; GI50 (LOX IMVI): 3.98 µM; LC50 (LOX IMVI): 43 µM; GI50 (SK-MEL-5 [5]): 0.609 µM; LC50 (SK-MEL-5 [5]): 6.03 µM; GI50 (UACC-257 [6]): 5.37 µM; CC50 (UACC-257 [6]; [25]): 43.3 µM; GI50 (UACC-62 [7]): 3.76 µM; LC50 (UACC-62 [7]): 42.1 µM; GI50 (NCI/ADR-RES): 3.19 µM; LC50 (concentration killing 50% of cells) (NCI/ADR-RES): 39.4 µM; GI50 (A498 [8]): 2.87 µM; LC50 (A498 [8]): 30.6 µM; GI50 (ACHN [9]): 4.96 µM; LC50 (50% lethal concentration) (ACHN [9]): 42.2 µM; GI50 (CAKI-1 [10]): 2.72 µM; CC50 (CAKI-1 [10]; [25]): 44.6 µM; GI50 (SN12C [11]): 7.8 µM; CC50 (SN12C [11]; [25]): 50.9 µM; GI50 (TK-10): 3.63 µM; LC50 (50% lethal concentration) (TK-10): 50.9 µM; GI50 (MCF7 [12]): 2.67 µM; LC50 (MCF7 [12]): 36.3 µM; GI50 (MDA-MB-231): 5.8 µM; CC50 (MDA-MB-231; [25]): 48.5 µM; GI50 (MDA-MB-468): 1.43 µM; CC50 (MDA-MB-468; [25]): 33 µM; growth inhibition (GI) (RPMI-8226 [13]): inactive; growth inhibition (GI) (SR [14]): inactive; growth inhibition (GI) (NCI-H226): inactive; growth inhibition (GI) (NCI-H23 [15]): inactive; growth inhibition (GI) (HOP-62): inactive; growth inhibition (GI) (A549): inactive; growth inhibition (GI) (COLO 205): inactive; growth inhibition (GI) (HCT-116): inactive; growth inhibition (GI) (HT-29): inactive; growth inhibition (GI) (SW-620): inactive; growth inhibition (GI) (HCC 2998): inactive; growth inhibition (GI) (SF-539): inactive; growth inhibition (GI) (U-251 [16]): inactive; growth inhibition (GI) (SF-268): inactive; growth inhibition (GI) (SNB-75): inactive; growth inhibition (GI) (SK-MEL-5 [17]): inactive; growth inhibition (GI) (UACC-257 [18]): inactive; growth inhibition (GI) (UACC-62 [19]): inactive; growth inhibition (GI) (SK-MEL-2): inactive; growth inhibition (GI) (IGROV-1): inactive; growth inhibition (GI) (OVCAR-8): inactive; growth inhibition (GI) (A498 [20]): inactive; growth inhibition (GI) (ACHN [21]): inactive; growth inhibition (GI) (CAKI-1 [22]): inactive; growth inhibition (GI) (SN12C [23]): inactive; growth inhibition (GI) (786-0): inactive; growth inhibition (GI) (PC-3): inactive; growth inhibition (GI) (MCF7 [24]): inactive
